“Also recorded” adds a separate entry of the source.
Assays:
[1] = tested on: human mammary epithelial cells; test: Human mammary organoid cell lineage balance by flow cytometry; conditions: for cell lineage balance, inhibitors of TGFβ signaling: ~10 μM SB431542, ~200-500 nM A77-01, ~5-25 RepSox; for cell lineage balance, ERBB receptor family ligands: ~10-50 ng/mL AREG, ~10-50 ng/mL EGF, ~50-100 ng/mL NRG1; for cell lineage balance across multiple experiments, ERBB ligands: normalized to control lacking ERBB modulators, mean of 2 experiments
Method: (§4) Cryopreserved pellet A and pellet B were dissociated into a single cell suspension by treatment with 0.25% Trypsin-EDTA for 5 minutes at 37° C. (with intermittent trituration) and then centrifuged at (300 g for 5 minutes). The supernatant was discarded and the pellet was resuspended in a 100 μg/ml DNase solution for 1 minute at room temperature. The resulting cells were passed through a 37 μm strainer to obtain the single cell suspension.
Each well received between 0.5-1 mL of any one of the various culture media described herein.
The plated single cell suspension of mammary epithelial cells formed into organoids that were passaged approximately every 7-days, with 2-3 full medium changes during such 7-day period. To passage the organoids, the Matrigel domes were broken apart by pipetting in pre-warmed 0.25% Trypsin-EDTA, incubating at 37° C. for ˜ 5-15 minutes and pipetting again. The trypsinization reaction was inactivated by washing in an equal volume of Hanks Balanced Salt Solution supplemented with 2% FBS. Depending on the density and size of organoids a 1:2-1:5 split was performed, with the cells seeded as domes, as described above. Alternatively, cells would be strained through a 37 μm strainer to obtain the single cell suspension and seeded in Matrigel domes as described above.
Organoids were formed in media comprising either BMP signaling activator, ˜50 ng/mL BMP2 or ˜50 ng/mL BMP4, and in media comprising either BMP signaling inhibitor, ˜25-200 ng/mL NOGGIN or ˜10-100 nM LDN193189. Just prior to the first passage, the formed organoids were dissociated and the cell lineage balance was analyzed by flow cytometry.
Organoids were formed in media comprising either no ligand of an ERBB receptor family member, or comprising ˜10-50 ng/mL amphiregulin (AREG), ˜10-50 ng/mL epidermal growth factor (EGF), or ˜50-100 ng/mL heregulin/neuregulin 1 (NRG1). Just prior to the first passage, the formed organoids were dissociated and the cell lineage balance was analyzed by flow cytometry.
Just prior to the first passage, the formed organoids were dissociated and the cell lineage balance was analyzed by flow cytometry.

[2] = tested on: human mammary epithelial cells; test: Human mammary organoid formation, brightfield microscopy; format: cell-based; conditions: media comprising NOGGIN or LDN193189 alone vs both; successive passages
Method: Fragments of human mammary epithelial cells were isolated from tissue samples obtained from academic collaborators, as follows. Resected tissue samples were minced in a petri dish using a scalpel to cut in a cross-hatched pattern. The minced tissue samples were placed in a dissociation flask in standard culture medium supplemented with BSA, insulin, collagenase and hyaluronidase. The flask was gently shaken overnight on an orbital shaker placed in a 37° C. tissue incubator. The following morning the floating layer of fat was removed by pipette, and the remaining liquid was transferred to a tube and briefly centrifuged at low rpm (˜80 g for 30 seconds). The pellet (A pellet) was set aside and the supernatant was further centrifuged for an incrementally longer period of time and at an incrementally higher rpm (˜200 g for 4 minutes). The pellet (B pellet) was set aside and the supernatant was further centrifuged for a still incrementally longer period of time and at an incrementally higher rpm (˜450 g for 5 minutes).
Cryopreserved pellet A and pellet B were dissociated into a single cell suspension by treatment with 0.25% Trypsin-EDTA for 5 minutes at 37° C. (with intermittent trituration) and then centrifuged at (300 g for 5 minutes). The supernatant was discarded and the pellet was resuspended in a 100 μg/ml DNase solution for 1 minute at room temperature. […]

[3] = tested on: estrogen receptor localization in mouse mammary organoids; test: ER localization in mouse mammary organoids after transient TGFβ signaling inhibitor exposure (confocal); format: cell-based; conditions: transient exposure after organoids have formed
Method: (§1) In panel A) (human) and in panel B) (mouse) organoids were formed in respective organoid media of this disclosure, and were then transiently exposed to different inhibitors of TGFβ signaling. Organoids were imaged by confocal microscopy after staining for K8, K14, ER and the nuclear stain DAPI.
(§2) Organoids were recovered from Matrigel by incubating in Corning Cell Recovery Solution for 1 hour with rocking on ice. Organoids were then fixed in 4% paraformaldehyde (PFA) at room temperature for 1 hour and stored in PBS at 4° C. After PFA fixation, antigen retrieval was performed by boiling the organoids in sodium citrate buffer for 20 minutes at 96° C. Organoids were permeabilized in a 0.5% Triton-X-100 solution in PBS overnight at room temperature. Samples were blocked by incubating overnight in a solution of 5% goat serum.
(§3) Following fixation and permeabilization, the organoids were incubated sequentially in primary antibody and secondary antibody solutions (as summarized in the table below) overnight at room temperature. Samples were counterstained in a 2 μg/ml DAPI solution for 20 minutes and dehydrated through stepwise incubations in solutions with increasing methanol concentrations (50%, 80%, then 100% methanol). […]

[4] = tested on: estrogen receptor localization in human mammary organoids; test: ER localization in human mammary organoids after transient TGFβ signaling inhibitor exposure (confocal); format: cell-based; conditions: transient exposure after organoids have formed
Method: as §1, §2, §3

[5] = tested on: human mammary epithelial cells; test: Human mammary organoids stained for K8/K14, confocal microscopy; format: cell-based; conditions: Day 17 organoids; 50 ng/mL NRG3, 100 ng/mL AMH, 50 ng/mL GM-CSF
Method: as §2
as §3, with “methanol). Organoids were embedded in a solution of 2:1 Benzyl Benzoate-Benzyl alcohol (BABB), transferred to Ibidi glass bottom chamber slides and imaged using a Leica SP8 confocal laser scanning microscope.” for “methanol).”
The effects of modulating signaling through BMP were analyzed across multiple experiments in terms of total cell count among formed organoids (FIG. 9A) and the lineage balance of the cells among formed organoids (FIG. 9B). […]

[6] = tested on: human mammary epithelial cells; test: Total cell count among formed human mammary organoids; format: cell-based; conditions: vs control with no modulation of ERBB signaling
Method: as §4
Each well received between 0.5-1 mL of any one of the various culture media described herein. […]
The effects of modulating signaling through an ERBB receptor family member were analyzed across multiple experiments in terms of total cell count among formed organoids (FIG. 13A) and the lineage balance of the cells among formed organoids (FIG. 13B).

Molecule: Cc1cccc(-c2[nH]ncc2-c2ccnc3ccccc23)n1 [A77-01, reference compound]
- cell lineage balance, inhibitors of TGFβ signaling [1]: reduce the proportion of stromal cells while either maintaining or improving the proportions of luminal cells

Molecule: C#Cc1cccc(Nc2ncnc3cc(OCCOC)c(OCCOC)cc23)c1 [Erlotinib, reference compound]
- cell lineage balance, EGF receptor inhibition ([1]; ~100 nM Gefitinib and ~100 nM Erlotinib given together, two donor samples): negligible or no effect on cell lineage balance

Molecule: c1ccc2c(-c3cnn4cc(-c5ccc(N6CCNCC6)cc5)cnc34)ccnc2c1 [LDN193189, reference compound]
- formation of luminal organoids, single vs dual BMP signaling inhibitor [2]: appeared sufficient to bias formation of luminal organoids
- cell lineage balance, BMP signaling modulators ([1]; just prior to first passage, ~50 ng/mL BMP2 or BMP4, ~25-200 ng/mL NOGGIN or ~10-100 nM LDN193189): decreased the number of basal cells while increasing the number of luminal cells

Molecule: Cc1cccc(-c2[nH]ncc2-c2ccc3ncccc3n2)n1 [RepSox]
- cell lineage balance, inhibitors of TGFβ signaling [1]: reduce the proportion of stromal cells while either maintaining or improving the proportions of luminal cells
- localization of estrogen receptor, mouse organoids [3]: promoted the localization of estrogen receptor within nuclei
- localization of estrogen receptor, human organoids [4]: promoted the localization of estrogen receptor within nuclei

Molecule: NC(=O)c1ccc(-c2nc(-c3ccc4c(c3)OCO4)c(-c3ccccn3)[nH]2)cc1 [SB431542]
- cell lineage balance, inhibitors of TGFβ signaling [1]: reduce the proportion of stromal cells while either maintaining or improving the proportions of luminal cells
- localization of estrogen receptor, mouse organoids [3]: promoted the localization of estrogen receptor within nuclei
- localization of estrogen receptor, human organoids [4]: promoted the localization of estrogen receptor within nuclei

Molecule: Granulocyte-macrophage Colony Stimulating Factor [GM-CSF]
- lineage restriction of organoids formed (K8/K14 staining) [5]: bias the culture of mammary epithelial cells to form basal-restricted organoids; also recorded: Basal-restricted organoids were formed

Molecule: Neuregulin 3 [NRG3]
- lineage restriction of organoids formed (K8/K14 staining) [5]: bias the culture of mammary epithelial cells to form luminal-restricted organoids; also recorded: Luminal-restricted organoids were formed

Molecule: TGFβ1: ligand of a TGFβ receptor
- cell lineage balance, TGFβ receptor ligands ([1]; ~50 ng/mL, just prior to first passage): an overall negative impact on the percentage of luminal and basal cells, while greatly increasing the proportion of stromal cells

Molecule: epidermal growth factor [EGF]
- total cell count among formed organoids, ERBB modulators [6]: highest mitogenic activity
- cell lineage balance, ERBB receptor family ligands ([1]; just prior to first passage): significantly reduce the number of luminal cells while significantly increasing the number of basal cells
- cell lineage balance across multiple experiments, ERBB ligands [1]: the greatest reduction in luminal cells and the greatest increase in basal cells

Molecule: heregulin/neuregulin 1 [NRG1]
- cell lineage balance, ERBB receptor family ligands ([1]; just prior to first passage): a minor or no effect on cell lineage balance
- cell lineage balance across multiple experiments, ERBB ligands [1]: a higher percentage of luminal cells and a reduction in the percentage of basal cells

— patent US20240191187A1, “MEDIA AND METHODS FOR GROWING MAMMARY ORGANOIDS” (STEMCELL TECHNOLOGIES CANADA INC., priority 2021, published 2024)
